# Reference: ChEMBL document CHEMBL6109161, “Novel Pyrazolo[1,5-a]pyrimidine-3,5-diamines as nSMase2 Inhibitors” (ACS Med Chem Lett, 2025)
# Test: Inhibition of recombinant human neutral sphingomyelinase 2 using […] as substrate in presence of alkaline phosphatase, choline oxidase and horseradish peroxidase by fluorescence-based coupled assay
row,Compound,IC50 [µM]
1,CN(C)c1cnn2ccc(NCc3ccccc3)nc12,0.08
2,COc1ccc(CNc2ccn3ncc(N(C)C)c3n2)cc1OC,0.03
3,CN(C)c1cnn2ccc(NCc3ccc(C(F)(F)F)cc3)nc12,0.04
4,CN(C)c1ccc(CNc2ccn3ncc(N(C)C)c3n2)cc1,0.1
5,CC1CCCN1c1ccn2ncc(N(C)C)c2n1 (stereo unspecified),0.07
6,CN(C)c1cnn2ccc(N3CCOCC3)nc12,0.06
